# Assay results as given in US8722015B2, “Compositions and methods for treatment of angiogenesis-associated ocular disorders” (The Schepens Eye Research Institute, Inc., priority 2010, dated 2014).
# Tested on: pathological retinas
# Assay: Staining of pathological and healthy retinas with SH peptide, confocal images
# Format: binding, rat
# Protocol: FIG. 7 is a series of confocal images of pathological (row A) and healthy (row B) retinas stained with either SH peptide alone (left hand column), the SH peptide and IB4, which decorates endothelial cells and activated macrophages/microglia (middle column), or SH peptide, IB4 and DAPI (right hand column). Yellow indicates either endothelial cells or activated macrophages/microglia that are also stained with the SH peptide.
# The following series of experiments are performed to assess if the unique peptide insert of the SH phage is sufficient for recognition of pathological retinal vessels. A peptide corresponding to the unique insert and the 4 flanking residues on the N and 2 residues on the C termini (GGACSTEALRHCG; SEQ ID NO: 3) is synthesized. To facilitate labeling of the peptide biotin is added on the N-terminus, thereby allowing for detection of the peptide with the fluorescently labeled avidin. The labeled SH peptide, along with the scrambled version is labeled and used to stain flat mounts of RA (experienced room air instead of the OIR protocol) or OIR retinas as was done in FIG. 4. The staining protocol is optimized to identify the suitable concentration of peptide, incubation and wash conditions. If the peptides used in these experiments include all of the necessary sequence information to selectively recognize the pathological retinal vessels, then the peptides work comparably to the phage, as shown in FIG. 4.
# Peptides corresponding to those expressed on the surface of the SH phage, e.g., those with the amino acid sequence STEALRH (SEQ ID NO: 2), recognized pathological retinas much more effectively than healthy retinas.
substance,measurement,setting,value
STEALRH (Protein from peptide library) [SH peptide],"comparison with the entire SH phage (strength of the signal, absence of background)",FIG. 7,superior to the entire SH phage
same,staining of pathological versus healthy retinas,"OIR versus healthy retinas, FIG. 7",stained pathological retinas much more robustly than healthy retinas
same,recognition of areas without overt pathology,"pathological retina, in addition to tufts",recognized areas without overt pathology
